{
  "source": "ChEMBL document CHEMBL1201862",
  "about": "“PubChem BioAssay data set” (2004)",
  "key": {"[1]": {"biological_target": "Potassium voltage-gated channel subfamily KQT member 2 (Rattus norvegicus, UniProt O88943)", "sequence (O88943 whole entry)": "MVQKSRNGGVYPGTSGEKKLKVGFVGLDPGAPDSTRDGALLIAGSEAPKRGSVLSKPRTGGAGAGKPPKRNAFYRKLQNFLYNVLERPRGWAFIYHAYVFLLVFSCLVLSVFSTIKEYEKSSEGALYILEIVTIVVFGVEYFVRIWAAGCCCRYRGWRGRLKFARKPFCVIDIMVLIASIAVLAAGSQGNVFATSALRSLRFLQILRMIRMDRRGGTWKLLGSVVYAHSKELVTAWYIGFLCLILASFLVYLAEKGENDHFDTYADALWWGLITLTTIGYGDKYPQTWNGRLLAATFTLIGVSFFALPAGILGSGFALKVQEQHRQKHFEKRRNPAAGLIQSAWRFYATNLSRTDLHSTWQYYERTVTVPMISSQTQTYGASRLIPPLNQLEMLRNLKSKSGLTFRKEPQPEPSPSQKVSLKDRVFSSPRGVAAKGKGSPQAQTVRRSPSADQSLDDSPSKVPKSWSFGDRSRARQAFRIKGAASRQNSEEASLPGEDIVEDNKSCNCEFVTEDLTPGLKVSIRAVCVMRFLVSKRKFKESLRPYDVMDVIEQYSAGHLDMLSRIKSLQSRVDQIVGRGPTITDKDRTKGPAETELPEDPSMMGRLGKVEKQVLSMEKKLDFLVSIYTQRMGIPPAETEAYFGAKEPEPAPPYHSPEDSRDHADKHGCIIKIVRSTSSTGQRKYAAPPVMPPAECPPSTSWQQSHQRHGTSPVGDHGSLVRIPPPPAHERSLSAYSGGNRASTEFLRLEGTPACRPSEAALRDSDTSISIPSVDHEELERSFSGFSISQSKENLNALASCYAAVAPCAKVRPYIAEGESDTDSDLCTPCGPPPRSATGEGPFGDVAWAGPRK", "assay": "retigabine-insensitive KCNQ2 potentiators, concentration-response, dose response, cell-based, retigabine-insensitive compounds (AID 2654)", "format": "functional"}, "[2]": {"tested_on": "Salmon testes DNA", "assay": "DNA intercalators displacing acridine orange, dose response, artefact control for KSHV LANA DNA-binding inhibitor project, biochemical, fluorescence polarization, cherry-picked samples, set 2 (AID 504727)", "design": "species or system Salmonidae"}, "[3]": {"biological_target": "ORF 73 (Human herpesvirus 8, UniProt O40947)", "sequence (O40947 whole entry)": "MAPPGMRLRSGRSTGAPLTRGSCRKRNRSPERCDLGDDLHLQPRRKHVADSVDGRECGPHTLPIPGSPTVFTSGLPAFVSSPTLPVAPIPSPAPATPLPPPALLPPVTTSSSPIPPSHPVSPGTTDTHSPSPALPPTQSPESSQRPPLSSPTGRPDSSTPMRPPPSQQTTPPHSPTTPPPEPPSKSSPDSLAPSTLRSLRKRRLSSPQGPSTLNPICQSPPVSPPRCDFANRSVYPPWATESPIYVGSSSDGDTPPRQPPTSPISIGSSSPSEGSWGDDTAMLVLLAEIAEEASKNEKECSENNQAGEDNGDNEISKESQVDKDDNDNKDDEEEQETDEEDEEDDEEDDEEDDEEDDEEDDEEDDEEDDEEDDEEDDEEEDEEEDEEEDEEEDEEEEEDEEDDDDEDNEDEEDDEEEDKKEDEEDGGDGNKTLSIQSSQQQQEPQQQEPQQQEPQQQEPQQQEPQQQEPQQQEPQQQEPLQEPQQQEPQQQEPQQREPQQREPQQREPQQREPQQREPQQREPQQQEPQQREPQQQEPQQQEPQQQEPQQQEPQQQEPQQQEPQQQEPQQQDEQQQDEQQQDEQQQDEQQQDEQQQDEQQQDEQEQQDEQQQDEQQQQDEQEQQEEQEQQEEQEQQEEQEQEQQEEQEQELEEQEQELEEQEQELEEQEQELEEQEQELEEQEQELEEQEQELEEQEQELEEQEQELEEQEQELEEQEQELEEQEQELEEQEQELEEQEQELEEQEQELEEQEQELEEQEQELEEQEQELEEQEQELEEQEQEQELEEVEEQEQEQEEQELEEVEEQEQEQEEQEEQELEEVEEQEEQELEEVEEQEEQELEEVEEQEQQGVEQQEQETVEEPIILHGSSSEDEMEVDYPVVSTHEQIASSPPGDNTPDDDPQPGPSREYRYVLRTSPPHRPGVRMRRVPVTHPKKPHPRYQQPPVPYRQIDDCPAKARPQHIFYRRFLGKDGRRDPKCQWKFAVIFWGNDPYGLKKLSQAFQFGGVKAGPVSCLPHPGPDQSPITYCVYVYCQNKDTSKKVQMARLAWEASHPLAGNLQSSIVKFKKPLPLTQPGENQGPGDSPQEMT", "assay": "inhibitors of C-LANA binding to LBS DNA, dose response, biochemical, fluorescence polarization, cherry-picked samples (AID 504725);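 note: fluorescence polarization of a labeled DNA duplex reporting LANA DNA binding; potency is for inhibitors that block LANA binding to the DNA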", "design": "species or system Human gammaherpesvirus 8"}, "[4]": {"assay": "cytotoxicity in NIH/3T3 mouse fibroblasts, dose response, cytotoxicity control, cell-based, mouse embryonic fibroblasts, dry powder, set 2 (AID 493247)", "format": "functional", "settings": "Fibroblast"}, "[5]": {"biological_target": "T1, Mannose-6-phosphate isomerase (Homo sapiens, UniProt P34949)", "T1 sequence (P34949 whole entry)": "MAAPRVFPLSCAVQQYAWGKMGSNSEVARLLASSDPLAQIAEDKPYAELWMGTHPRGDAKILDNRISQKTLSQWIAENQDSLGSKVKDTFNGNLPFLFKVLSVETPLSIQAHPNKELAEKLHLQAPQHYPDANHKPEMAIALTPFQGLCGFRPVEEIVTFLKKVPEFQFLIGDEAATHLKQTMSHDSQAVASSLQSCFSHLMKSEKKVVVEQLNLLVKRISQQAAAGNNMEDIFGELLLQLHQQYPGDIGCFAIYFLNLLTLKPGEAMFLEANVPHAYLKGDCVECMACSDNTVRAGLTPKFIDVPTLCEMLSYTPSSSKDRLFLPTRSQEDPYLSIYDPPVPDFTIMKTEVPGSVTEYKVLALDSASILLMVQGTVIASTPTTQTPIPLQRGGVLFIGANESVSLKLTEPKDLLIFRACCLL", "assay": "Confirmation of compounds inhibiting phosphomannose isomerase (PMI) via a fluorescence intensity assay using a high concentration of mannose 6-phosphate. [Related pubchem assays (depositor defined):AID1209, AID1220, AID1545, AID1553, AID1620]"}, "[6]": {"biological_target": "T2, Phosphomannomutase 2 (Homo sapiens, UniProt O15305)", "T2 sequence (O15305 whole entry)": "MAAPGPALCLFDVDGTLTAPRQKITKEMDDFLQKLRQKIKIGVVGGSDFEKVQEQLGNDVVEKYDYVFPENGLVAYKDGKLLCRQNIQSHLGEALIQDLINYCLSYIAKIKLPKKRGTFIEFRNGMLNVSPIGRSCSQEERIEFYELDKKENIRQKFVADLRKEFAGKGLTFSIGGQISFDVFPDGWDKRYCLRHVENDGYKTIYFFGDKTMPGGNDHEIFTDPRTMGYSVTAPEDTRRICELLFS", "assay": "Counter screen SAR assay for PMM2 inhibitors via a fluorescence intensity assay. [Related pubchem assays (depositor defined):AID1545, AID1574]"}, "[7]": {"biological_target": "Phosphoethanolamine/phosphocholine phosphatase (Homo sapiens, UniProt Q8TCT1)", "sequence (Q8TCT1 whole entry)": "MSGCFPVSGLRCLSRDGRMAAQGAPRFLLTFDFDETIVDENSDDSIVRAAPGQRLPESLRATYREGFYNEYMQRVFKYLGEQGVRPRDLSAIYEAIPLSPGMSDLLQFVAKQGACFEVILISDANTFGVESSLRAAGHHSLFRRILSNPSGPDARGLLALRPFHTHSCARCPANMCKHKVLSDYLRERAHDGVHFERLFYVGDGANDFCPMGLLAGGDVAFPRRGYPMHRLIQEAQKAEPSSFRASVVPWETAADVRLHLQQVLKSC", "assay": "SAR assay for compounds that inhibit PHOSPHO1. [Related pubchem assays (depositor defined):AID1545, AID1565, AID1574]"}, "[8]": {"biological_target": "T3, Alkaline phosphatase, tissue-nonspecific isozyme (Homo sapiens, UniProt P05186)", "T3 sequence (P05186 whole entry)": "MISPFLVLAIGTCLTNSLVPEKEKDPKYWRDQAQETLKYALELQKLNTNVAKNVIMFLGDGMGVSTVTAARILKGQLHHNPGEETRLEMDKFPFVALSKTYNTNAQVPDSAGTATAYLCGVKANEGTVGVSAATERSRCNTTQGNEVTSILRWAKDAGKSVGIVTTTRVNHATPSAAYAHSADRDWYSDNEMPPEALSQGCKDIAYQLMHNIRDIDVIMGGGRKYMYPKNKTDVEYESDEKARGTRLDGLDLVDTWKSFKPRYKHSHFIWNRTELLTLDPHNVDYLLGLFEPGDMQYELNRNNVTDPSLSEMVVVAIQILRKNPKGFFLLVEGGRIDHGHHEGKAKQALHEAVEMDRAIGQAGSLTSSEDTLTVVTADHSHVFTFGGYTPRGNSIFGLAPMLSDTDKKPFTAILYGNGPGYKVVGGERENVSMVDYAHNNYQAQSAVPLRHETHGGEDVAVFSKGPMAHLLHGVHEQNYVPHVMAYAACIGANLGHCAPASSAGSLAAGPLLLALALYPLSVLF", "assay": "human TNAP enzyme inhibitors, SAR follow-up, biochemical, luminescent, dose response (AID 1056)"}, "[9]": {"assay": "HeLa cell cytotoxicity, dose response, cytotoxicity control for MgcRacGAP inhibitor project (AID 624300)", "format": "functional"}, "[10]": {"biological_target": "T4, Rac GTPase-activating protein 1 (Homo sapiens, UniProt Q9H0H5)", "T4 sequence (Q9H0H5 whole entry)": "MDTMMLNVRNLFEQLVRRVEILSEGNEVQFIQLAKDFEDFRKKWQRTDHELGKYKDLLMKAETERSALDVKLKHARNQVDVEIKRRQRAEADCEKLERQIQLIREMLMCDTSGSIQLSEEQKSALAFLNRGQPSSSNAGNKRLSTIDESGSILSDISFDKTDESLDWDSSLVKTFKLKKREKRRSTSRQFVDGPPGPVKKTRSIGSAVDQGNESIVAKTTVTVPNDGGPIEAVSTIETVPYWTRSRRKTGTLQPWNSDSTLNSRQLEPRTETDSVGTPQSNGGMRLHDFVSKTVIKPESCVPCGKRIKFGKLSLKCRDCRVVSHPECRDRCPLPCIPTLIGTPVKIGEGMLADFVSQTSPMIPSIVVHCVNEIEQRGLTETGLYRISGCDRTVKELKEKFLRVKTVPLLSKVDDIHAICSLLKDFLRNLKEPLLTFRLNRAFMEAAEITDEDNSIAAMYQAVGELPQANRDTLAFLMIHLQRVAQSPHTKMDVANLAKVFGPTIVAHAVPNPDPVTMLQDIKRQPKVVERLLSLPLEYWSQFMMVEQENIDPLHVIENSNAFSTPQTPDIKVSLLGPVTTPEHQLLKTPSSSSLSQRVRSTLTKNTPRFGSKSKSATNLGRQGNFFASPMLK", "assay": "MgcRacGAP GTPase-activating activity inhibitors, confirmation, biochemical, ADP Hunter fluorescence, primary and confirmatory (AID 624330)", "format": "functional"}},
  "note": "Active and inactive are the calls of the source.",
  "data": [
    {"smiles": "Cc1cccc(NC(=O)Nc2cccnc2)c1", "values": [
      {"measurement": "EC50", "setting": "[1]", "result": "16.8 µM (active)"}
    ]},
    {"smiles": "Cc1ccc(N(CC(=O)N2CCOCC2)S(C)(=O)=O)cc1", "values": [
      {"measurement": "AC50", "setting": "[2]", "result": "70.1 µM (active)"},
      {"measurement": "AC50", "setting": "[3]", "result": "20.1 µM (active)"}
    ]},
    {"smiles": "CN(Cc1ccccc1)C(=O)C1CCCN(Cc2ccc(C(F)(F)F)cc2)C1", "note": "(stereo not given)", "values": [
      {"measurement": "AC50", "setting": "[4]", "result": "61.6 µM (active)"}
    ]},
    {"smiles": "COC(=O)c1cccc(-n2sc3ccccc3c2=O)c1", "values": [
      {"measurement": "IC50", "setting": "[5]", "result": "14 µM (active)"},
      {"measurement": "IC50", "setting": "[6]", "result": "15.4 µM (active)"},
      {"measurement": "IC50", "setting": "[7]", "result": "824 nM (active)"},
      {"measurement": "IC50", "setting": "[8]", "result": "> 100 µM (inactive)"},
      {"measurement": "CC50", "setting": "[9]", "result": "100 µM (active)"},
      {"measurement": "IC50", "setting": "[10]", "result": "36.9 µM (active)"}
    ]}
  ]
}
